Laboratory results from patent publication US7998965B2, “Glutamate aggrecanase inhibitors” (Wyeth LLC, priority 2005, dated 2011).

target: T1, purified recombinant human Aggrecanase-1 (rAgg1) (Homo sapiens, UniProt O75173); assay: In vitro fluorescence screen for Aggrecanase-1 inhibitors; assay type: biochemical; conditions: Table 1
T1 sequence (O75173 213-837): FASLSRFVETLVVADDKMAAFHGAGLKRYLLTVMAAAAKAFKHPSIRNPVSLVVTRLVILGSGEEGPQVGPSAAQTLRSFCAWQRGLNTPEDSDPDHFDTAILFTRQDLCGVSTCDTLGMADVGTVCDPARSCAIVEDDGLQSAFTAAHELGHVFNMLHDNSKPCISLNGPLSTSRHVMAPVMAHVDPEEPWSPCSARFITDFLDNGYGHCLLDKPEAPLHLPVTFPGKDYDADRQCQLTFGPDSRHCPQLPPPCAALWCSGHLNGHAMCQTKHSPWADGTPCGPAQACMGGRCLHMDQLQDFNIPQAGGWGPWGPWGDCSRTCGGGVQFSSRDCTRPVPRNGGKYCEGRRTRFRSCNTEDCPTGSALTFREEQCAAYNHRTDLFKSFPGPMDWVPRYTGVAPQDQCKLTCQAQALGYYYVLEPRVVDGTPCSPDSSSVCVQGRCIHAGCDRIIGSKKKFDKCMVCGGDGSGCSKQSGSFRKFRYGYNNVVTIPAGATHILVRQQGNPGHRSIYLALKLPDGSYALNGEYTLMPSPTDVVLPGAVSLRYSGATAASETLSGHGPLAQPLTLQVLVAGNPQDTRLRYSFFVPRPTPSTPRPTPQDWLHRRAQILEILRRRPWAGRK

Row | Structure (SMILES) | Agg1 IC50 (nM)
1 | COc1cc(C(=O)N[C@@H](CCC(=O)O)C(=O)NCc2ccccc2)cc(OC)c1-c1ccccc1 [Example 17AAA, N^1-benzyl-N^2-[(2,6-dimethoxy-1,1′-biphenyl-4-yl)carbonyl]-L-α-glutamine] | no inh
2 | O=C(O)CC[C@H](NC(=O)c1cccc(-c2ccccc2)c1)C(=O)NCc1ccccc1 [Example 17WW, N^1-benzyl-N^2-(1,1′-biphenyl-3-ylcarbonyl)-L-α-glutamine] | no inh
3 | O=C(O)CC[C@H](NC(=O)c1cccc(-c2cccs2)c1)C(=O)NCc1ccccc1 [Example 17XX, N^1-benzyl-N^2-(3-thien-2-ylbenzoyl)-L-α-glutamine] | no inh
4 | O=C(O)CC[C@H](NC(=O)c1ccc(-c2ccco2)o1)C(=O)NCc1ccccc1 [Example 21C, N^1-benzyl-N^2-(2,2′-bifuran-5-ylcarbonyl)-L-α-glutamine] | no inh
5 | O=C(O)CC[C@H](NC(=O)c1ccc(-c2cccs2)o1)C(=O)NCc1ccccc1 [Example 21D, N^1-benzyl-N^2-(5-thien-2-yl-2-furoyl)-L-α-glutamine] | no inh

same assay, conditions: Table 1; @ 7,500 (nM)

Row | Structure (SMILES) | Agg1 % @ concentration [% @]
6 | CCCCOc1ccc(-c2ccc(C(=O)N[C@@H](CCC(=O)O)C(=O)NCc3ccccc3)cc2)cc1 [Example 15B, N^1-benzyl-N^2-[(4′-butoxy-1,1′-biphenyl-4-yl)carbonyl]-L-α-glutamine] | 67
7 | O=C(O)CC[C@H](NC(=O)c1ccc(-c2ccc(OCC3CCC3)cc2)cc1)C(=O)NCc1ccccc1 [Example 15C, N^1-benzyl-N^2-{[4′-(cyclobutylmethoxy)-1,1′-biphenyl-4-yl]carbonyl}-L-α-glutamine] | 50
8 | O=C(O)CC[C@H](NC(=O)c1ccc(-c2ccc(OCC3CCCCC3)cc2)cc1)C(=O)NCc1ccccc1 [Example 15D, N^1-benzyl-N^2-{[4′-(cyclohexylmethoxy)-1,1′-biphenyl-4-yl]carbonyl}-L-α-glutamine] | 86

same assay, conditions: Table 1; read-out: Agg1 IC50

Row | Structure (SMILES) | IC50 [nM]
9 | C=CCOc1ccc(-c2ccc(C(=O)N[C@@H](CCC(=O)O)C(=O)NCc3ccccc3)cc2)cc1 [Example 15E, N^2-{[4′-(allyloxy)-1,1′-biphenyl-4-yl]carbonyl}-N^1-benzyl-L-α-glutamine] | 3500
10 | COc1cccc(COc2ccc(-c3ccc(C(=O)N[C@@H](CCC(=O)O)C(=O)NCc4ccccc4)cc3)cc2)c1 [Example 15F, N^1-benzyl-N^2-({4′-[(3-methoxybenzyl)oxy]-1,1′-biphenyl-4-yl}carbonyl)-L-α-glutamine] | 600
11 | COc1cc(COc2ccc(-c3ccc(C(=O)N[C@@H](CCC(=O)O)C(=O)NCc4ccccc4)cc3)cc2)cc(OC)c1 [Example 15G, N^1-benzyl-N^2-({4′-[(3,5-dimethoxybenzyl)oxy]-1,1′-biphenyl-4-yl}carbonyl)-L-α-glutamine] | 2200
12 | O=C(O)CC[C@H](NC(=O)c1ccc(-c2ccc(OCc3ccc4ccccc4c3)cc2)cc1)C(=O)NCc1ccccc1 [Example 15H, N^1-benzyl-N^2-{[4′-(2-naphthylmethoxy)-1,1′-biphenyl-4-yl]carbonyl}-L-α-glutamine] | 200
13 | COc1ccc(-c2ccccc2)cc1NC(=O)[C@H](CCC(=O)O)NC(=O)c1ccc(-c2ccccc2)cc1 [Example 17BBB, N^2-(1,1′-biphenyl-4-ylcarbonyl)-N^1-(4-methoxy-1,1′-biphenyl-3-yl)-L-α-glutamine] | 900
14 | O=C(O)CC[C@H](NC(=O)c1ccc(-c2ccccc2)o1)C(=O)NCc1ccccc1 [Example 20, N^1-benzyl-N^2-(5-phenyl-2-furoyl)-L-α-glutamine] | ~22000
15 | CC(=O)Nc1ccc(-c2ccc(C(=O)N[C@@H](CCC(=O)O)C(=O)NCc3ccccc3)cc2)cc1 [Example 23, N^2-{[4′-(acetylamino)-1,1′-biphenyl-4-yl]carbonyl}-N^1-benzyl-L-α-glutamine] | > 6000
16 | O=C(O)CC[C@H](NC(=O)c1ccc(-c2ccc(NC(=O)Cc3ccccc3)cc2)cc1)C(=O)O [Example 26, N-({4′-[(Phenylacetyl)amino]1,1′-biphenyl-4-yl}carbonyl)-L-α-glutamic acid] | 5000
17 | Cc1c(C(=O)Nc2ccc(-c3ccc(C(=O)N[C@@H](CCC(=O)O)C(=O)O)cc3)cc2)oc2ccccc12 [Example 27, N-[(4′-{[(3-Methyl-1-benzofuran-2-yl)carbonyl]-amino}-1,1′-biphenyl-4-yl)carbonyl]-L-α-glutamic acid] | 400
18 | O=C(O)CC[C@H](NC(=O)c1ccc(-c2ccc(NC(=O)c3ccco3)cc2)cc1)C(=O)O [Example 28, N-{[4′-(2-furoylamino)-1,1′-biphenyl-4-yl]carbonyl}-L-α-glutamic acid] | 400
19 | CC(=O)Nc1ccc(-c2ccc(C(=O)N[C@@H](CCC(=O)O)C(=O)O)cc2)cc1 [Example 29, N-{[4′-(acetylamino)-1,1′-biphenyl-4-yl]carbonyl}-L-α-glutamic acid] | 3000
20 | O=C(O)CC[C@H](NC(=O)c1ccc(-c2ccc(NC(=O)c3ccccc3)cc2)cc1)C(=O)O [Example 30, N-{[4′-(benzoylamino)-1,1′-biphenyl-4-yl]carbonyl}-L-α-glutamic acid] | 500
21 | O=C(O)CC[C@H](NC(=O)c1ccc(-c2ccc(NC(=O)c3cc4ccccc4o3)cc2)cc1)C(=O)O [Example 31, N-({4′-[(1-benzofuran-2-ylcarbonyl)amino]-1,1′-biphenyl-4-yl}carbonyl)-L-α-glutamic acid] | 1000

Further lines, results first:

Row | IC50 [nM] | Structure (SMILES)
22 | 7900 | O=C(O)CC[C@H](NC(=O)c1ccc(-c2ccncc2)cc1)C(=O)NCc1ccccc1 [Example 17VV, N^1-benzyl-N^2-(4-pyridin-4-ylbenzoyl)-L-α-glutamine]
23 | 2000 | O=C(O)CC[C@H](NC(=O)c1ccc(-c2ccccc2)cc1Cl)C(=O)NCc1ccccc1 [Example 17YY, N^1-benzyl-N^2-[(3-chloro-1,1′-biphenyl-4-yl)carbonyl]-L-α-glutamine]
24 | 200 | O=C(O)CC[C@H](NC(=O)c1ccc(-c2ccccc2)cc1F)C(=O)NCc1ccccc1 [Example 17ZZ, N^1-benzyl-N^2-[(3-fluoro-1,1′-biphenyl-4-yl)carbonyl]-L-α-glutamine]
25 | 2500 to 7500 | CCOc1cccc(-c2ccc(C(=O)N[C@@H](CCC(=O)O)C(=O)NCc3ccccc3)o2)c1 [Example 21A, N^1-benzyl-N^2-[5-(3-ethoxyphenyl)-2-furoyl]-L-α-glutamine]
26 | ~6700 | Cc1cc(C)cc(-c2ccc(C(=O)N[C@@H](CCC(=O)O)C(=O)NCc3ccccc3)o2)c1 [Example 21B, N^1-benzyl-N^2-[5-(3,5-dimethylphenyl)-2-furoyl]-L-α-glutamine]
27 | 1000 | O=C(O)CC[C@H](NC(=O)c1ccc(-c2ccccc2)nc1)C(=O)NCc1ccccc1 [Example 22A, N^1-benzyl-N^2-[(6-phenylpyridin-3-yl)carbonyl]-L-α-glutamine]
28 | 200 | COc1cccc(CNC(=O)[C@H](CCC(=O)O)NC(=O)c2ccc(-c3ccccc3)nc2)c1 [Example 22B, N^1-(3-methoxybenzyl)-N^2-[(6-phenylpyridin-3-yl)carbonyl]-L-α-glutamine]
29 | > 50000 | COc1cccc(CNC(=O)[C@H](CCC(=O)O)NC(=O)c2ccc(-c3ccccc3C)c(C)c2)c1 [Example 22C, N^2-[(2,2′-dimethyl-1,1′-biphenyl-4-yl)carbonyl]-N^1-(3-methoxybenzyl)-L-α-glutamine]
30 | 1100 | O=C(O)CC[C@H](NC(=O)c1ccc(-c2ccc(NC(=O)c3ccco3)cc2)cc1)C(=O)NCc1ccccc1 [Example 24A, N^1-benzyl-N^2-{[4′-(2-furoylamino)-1,1′-biphenyl-4-yl]carbonyl}-L-α-glutamine]
31 | ~2200 | O=C(O)CC[C@H](NC(=O)c1ccc(-c2ccc(NC(=O)c3ccc(F)cc3)cc2)cc1)C(=O)NCc1ccccc1 [Example 24B, N^1-benzyl-N^2-({4′-[(4-fluorobenzoyl)amino]1,1′-biphenyl-4-yl}carbonyl)-L-α-glutamine]
32 | ~300 | O=C(O)CC[C@H](NC(=O)c1ccc(-c2ccc(NC(=O)c3ccccc3)cc2)cc1)C(=O)NCc1ccccc1 [Example 24C, N^2-{[4′-(benzoylamino)-1,1′-biphenyl-4-yl]carbonyl}-N^1-benzyl-L-α-glutamine]
33 | < 30 | Cc1ccc(CNC(=O)[C@H](CCC(=O)NO)NC(=O)c2ccc(-c3ccccc3)cc2)cc1C [Example 33B, N^2-(1,1′-biphenyl-4-ylcarbonyl)-N^1-(3,4-dimethylbenzyl)-N^5-hydroxy-L-α-glutamamide]

same assay, conditions: Table 2; read-out: Agg1 IC50

Row | Structure (SMILES) | IC50 [nM]
34 | Cc1cccc(CNC(=O)[C@H](CCC(=O)O)NC(=O)c2ccc(Br)cc2)c1 [Example 18G, N^2-(4-bromobenzoyl)-N-(3-methylbenzyl)-L-α-glutamine] | ~8300

same assay, conditions: Table 3; read-out: Agg1 IC50

Row | Structure (SMILES) | IC50 [nM]
35 | CC(C)(Cc1ccccc1)NC(=O)[C@H](CCC(=O)O)NC(=O)c1cccc(-c2cccs2)c1 [N-(1,1-dimethyl-2-phenylethyl)-N^2-[3-(2-thienyl)benzoyl]-L-α-glutamine] | > 8300
